Data published in patent publication US7056943B2, “Substituted indole oxo-acetyl amino acetic acid derivatives as inhibitors of plasminogen activator inhibitor-1 (PAI-1)” (Wyeth, priority 2002, dated 2006).
pIC50: −log10 of the molar value.

Experiments:
[1] = molecular target: human PAI-1 (Homo sapiens, UniProt P05121); test: Assay for determining IC50 of inhibition of PAI-1 (active PAI-1 bound to tPA-coated plate, antibody detection); assay type: binding; conditions: human PAI-1 50 ng/ml, pH 7.5, tPA-coated plate
human PAI-1, sequence (P05121 24-402): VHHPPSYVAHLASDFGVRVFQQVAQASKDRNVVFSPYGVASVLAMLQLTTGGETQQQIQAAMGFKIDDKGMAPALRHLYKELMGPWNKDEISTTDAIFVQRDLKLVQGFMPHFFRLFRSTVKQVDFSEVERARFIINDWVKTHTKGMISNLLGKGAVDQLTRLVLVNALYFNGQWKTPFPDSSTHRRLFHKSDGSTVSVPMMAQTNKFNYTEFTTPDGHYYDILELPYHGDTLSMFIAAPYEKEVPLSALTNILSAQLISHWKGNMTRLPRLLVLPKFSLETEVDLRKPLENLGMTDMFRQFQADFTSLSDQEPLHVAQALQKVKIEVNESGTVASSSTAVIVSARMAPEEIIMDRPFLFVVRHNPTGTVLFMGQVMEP
Protocol: Assay for Determining IC50 of Inhibition of PAI-1
This assay was based upon the non-SDS dissociable interaction between tPA and active PAI-1. Assay plates were initially coated with human tPA (10 μg/ml). Test compounds were dissolved in DMSO at 10 mM, then diluted with physiologic buffer (pH 7.5) to a final concentration of 1–50 μM. The test compounds were incubated with human PAI-1 (50 ng/ml) for 15 minutes at room temperature. The tPA-coated plate was washed with a solution of 0.05% Tween 20 and 0.1% BSA, then the plate is blocked with a solution of 3% BSA. An aliquot of the test compound/PAI-1 solution was then added to the tPA-coated plate, incubated at room temperature for 1 hour, and washed. Active PAI-1 bound to the plate was assessed by adding an aliquot of a 1:1000 dilution of the 33B8 monoclonal antibody against human PAI-1, and incubating the plate at room temperature for 1 hour (Molecular Innovations, Royal Oak, Mich.). […] The plate was incubated 45 minutes at room temperature, and color development is determined at OD405nm. The quantitation of active PAI-1 bound to tPA at varying concentrations of the test compound was used to determine the IC50. Results were analyzed using a logarithmic best-fit equation. The assay sensitivity is 5 ng/ml of human PAI-1 as determined from a standard curve ranging from 0–100 ng/ml.

[2] = molecular target: T1, recombinant human plasminogen activator inhibitor-1 (Homo sapiens, UniProt P05121); test: Primary screen for the PAI-1 inhibition (residual tPA activity, chromogenic substrate Spectrozyme-tPA); assay type: biochemical; conditions: 25 uM test compound; 140 nM PAI-1, 70 nM tPA, pH 6.6
T1 construct: purchased Molecular Innovations, Royal Oak, Mich
T1 sequence (P05121 24-402): as above
Protocol: Primary Screen for the PAI-1 Inhibition The ability of the compounds of this invention to inhibit plasminogen activator inhibitor-1 was established by the following experimental procedures: Test compounds were dissolved in DMSO at a final concentration of 10 mM, then diluted 100× in physiologic buffer. The inhibitory assay was initiated by the addition of the test compound (1–100 μM final concentration, maximum DMSO concentration of 0.2%) in a pH 6.6 buffer containing 140 nM recombinant human plasminogen activator inhibitor-1 (Molecular Innovations, Royal Oak, Mich.). Following a 1 hour incubation at room temperature, 70 nM of recombinant human tissue plasminogen activator (tPA) was added, and the combination of the test compound, PAI-1 and tPA was incubated for an additional 30 minutes. Following the second incubation, Spectrozyme-tPA (American Diagnostica, Greenwich, Conn.), a chromogenic substrate for tPA, was added and absorbance was read at 405 nm at 0 and 60 minutes. Relative PAI-1 inhibition was equal to the residual tPA activity in the presence of the test compounds and PAI-1. Control treatments included the complete inhibition of tPA by PAI-1 at the molar ratio employed (2:1), and the absence of any effect of the test compound on tPA alone.

pIC50 [1]	melting point	Structure (SMILES)	inhibition at 25 µM [2] [%]
4.54	120 to 121 °C	Cc1cccc(-c2ccc3c(c2)c(C(=O)C(=O)NCC(=O)O)cn3Cc2ccc(C(C)(C)C)cc2)c1 [Example 1, {[[1-(4-tert-butylbenzyl)-5-(3-methylphenyl)-1H-indol-3-yl](oxo)acetyl]amino}acetic acid]	–
4.55	211 to 212 °C (dec.)	O=C(O)CNC(=O)C(=O)c1cn(Cc2ccccc2)c2ccc(-c3ccc(OC(F)(F)F)cc3)cc12 [Example 2, 2-[(2-{1-Benzyl-5-[4-(trifluoromethoxy)phenyl]-1H-indol-3-yl}-2-oxoacetyl)amino]acetic acid]	–

Structure (SMILES)	pIC50 [1]	melting point	inhibition at 25 µM [2] [%]
CN(CC(=O)O)C(=O)C(=O)c1cn(Cc2ccccc2)c2ccc(-c3cccc(OC(F)(F)F)c3)cc12 [Example 3, 2-[(2-{1-Benzyl-5-[3-(trifluoromethoxy)phenyl]-1H-indol-3-yl}-2-oxoacetyl)(methyl)amino]acetic acid]	–	178 to 179 °C	24
